US20100330028A1, “COMBINATION THERAPY FOR CHRONIC DERMAL ULCERS” (The Board of Regents THe Universityof Texas System, priority 2007, published 2010)

What was measured:
[1] = system: Human coronary artery endothelial (HCAE) cells; test: Invasion of HCAE cells through Matrigel toward PDGF; assay type: cell-based; conditions: PDGF 10 ng/ml, 22 h
Description: (§1) The design of experiments to measure invasion and migration of endothelial cells toward the angiogenic factor PDGF (platelet-derived growth factor-BB) is shown in FIGS. 7A and 8A respectively. The standard assay used 5×10^4 cells added to the top of the insert in 250 μl of medium. The lower portion of the apparatus contained 750 μl of medium, plus or minus PDGF. […] Transmembrane cell invasion and migration assays were performed using BD FluoroBlok inserts coated with BD Matrigel Matrix (a biologically active basement membrane preparation) or with fibronectin (BD Bioscience, Bedford, Mass.), respectively. […] PDGF [10 ng/ml] (R&D System, Minneapolis, Minn. (PDGF) or medium alone (CTR) were added to the lower chamber of the insert plate as a chemoattractant. The cells were allowed to invade or migrate for 22 hours. Cells were labeled post invasion or post migration with Calcein AM (4 μg/ml) and the fluorescence of the cells that invaded through the BD Matrigel Matrix or migrated to the underside of the insert membrane was measured using a plate reader at 485 nm (excitation) and 530 nm (emission).

[2] = system: Human coronary artery endothelial (HCAE) cells; test: Migration of HCAE cells through fibronectin-coated insert toward PDGF; assay type: cell-based; conditions: PDGF 10 ng/ml, 22 h
Description: as §1

[3] = system: Human coronary artery endothelial (HCAE) cells; test: Invasion of HCAE cells through Matrigel toward bFGF; assay type: cell-based; conditions: bFGF 10 ng/ml, 22 h
Description: (§2) The design of experiments to measure invasion and migration of endothelial cells toward the angiogenic factor bFGF (basic fibroblast growth factor) is shown in FIGS. 5A and 6A, respectively. The standard assay used 5×10^4 cells added to the top of the insert in 250 μl of medium. The lower portion of the apparatus contained 750 μl of medium, plus or minus bFGF. […] Transmembrane cell invasion and migration assays were performed using BD FluoroBlok (BD Bioscience, Bedford, Mass.) inserts coated with BD Matrigel Matrix (a biologically active basement membrane preparation) or with fibronectin, respectively. […] (R&D System, Minneapolis, Minn.) (FGF) or medium alone (CTR) were added to the lower chamber of the insert plate as a chemoattractant. The cells were allowed to invade or migrate for 22 hours. Cells were labeled post invasion or post migration with Calcein AM (4 μg/ml) and the fluorescence of the cells that invaded through the BD Matrigel Matrix or migrated to the underside of the insert membrane was measured using a plate reader at 485 nm (excitation) and 530 nm (emission).

[4] = system: Human coronary artery endothelial (HCAE) cells; test: Migration of HCAE cells through fibronectin-coated insert toward bFGF; assay type: cell-based; conditions: bFGF 10 ng/ml, 22 h
Description: as §2

[5] = system: thrombin receptor; conditions: cited from earlier work
[6] = system: thrombin receptor; conditions: cited from earlier work; remark: listed apart in the source
[7] = system: AC-23; test: Binding of biotin-conjugated thrombin to complementary peptide AC-23
[8] = system: 23C53; test: Binding of biotin-conjugated thrombin to complementary peptide 23C53
Chain of 23C53 (as listed by the source): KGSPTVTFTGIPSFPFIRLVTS

Chain of AC-23 (as listed by the source): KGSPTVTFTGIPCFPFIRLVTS

PDGF
Effect of PDGF on endothelial cell invasion compared to control medium without PDGF [1]: no effect
Effect of PDGF on endothelial cell migration compared to control (CTR) [2]: no effect

bFGF: angiogenic factor basic fibroblast growth factor (R&D System)
bFGF-induced endothelial cell invasion as % of invasion with control medium (CTR) [3]: ~170%
Increase of endothelial cell migration by bFGF compared to control medium not containing bFGF [4]: ~40%

p508-530: stimulatory thrombin polypeptide derivative containing fibronectin- and serine protease-homologous domains, residues 508 to 530 of human thrombin
Binding to thrombin receptors [5]: bind to thrombin receptors with high-affinity
Induction of mitogenesis / mitogenic signals [6]: substitute for DIP-alpha-thrombin as an initiator of receptor occupancy-related mitogenic signals

p519-530: intermediate thrombin peptide derivative, residues 519-530 of human thrombin (QPSVLQVVNLPI; UniProt P00734 519-530, looked up, fragment)
Induction of mitogenesis / mitogenic signals [6]: retains the ability to mediate mitogenesis but to a much lesser degree than p508-530

thrombin
Specific binding of biotin-conjugated thrombin to AC23 [7]: bind specifically
Specific binding of biotin-conjugated thrombin to 23C53 [8]: bind specifically
